Source: ChEMBL document CHEMBL1126411, “Synthesis and HIV activity of phosphonate isosteres of D4T monophosphate” (Bioorg Med Chem Lett, 1992)

tested on: MT4; assay: Concentration required for the inhibition of HIV replication by 50% in MT-4 cells; format: functional, cell-based; conditions: Homo sapiens

Question: For `Cc1cn([C@H]2C=C[C@@H](CCP(=O)(O)O)O2)c(=O)[nH]c1=O`, which IC50 is on record?
Answer: > 1000 µM

Question: Which IC50 does the source give for `Cc1cn([C@H]2C=C[C@@H](OCP(=O)(O)O)O2)c(=O)[nH]c1=O` here?
Answer: 1.3 µM

Question: Which IC50 does the source give for `Cc1cn([C@H]2C=C[C@@H](OCP(=O)(O)O)C2)c(=O)[nH]c1=O` here?
Answer: > 1000 µM

Question: For `Cc1cn([C@H]2C=C[C@@H](CO)O2)c(=O)[nH]c1=O` [STAVUDINE], which IC50 is on record?
Answer: 1.2 µM
